In patent US7687609B2, “Galectin-glycosaminoglycan complex and method for controlling galectin activity” (National Institute of Advanced Industrial Science and …, priority 2006, dated 2010):

Assays:
Galectin-1 = molecular target: T1, Galectin-1 (Homo sapiens, UniProt P09382); experiment: FAC affinity test on galectin-immobilized column; type: binding; settings: pyridyl-aminated carbohydrate; galectin-1 immobilized 0.8 mg/ml; less than 5 μl = below interaction detection limit
T1 construct: made in house
T1 sequence (P09382 whole entry): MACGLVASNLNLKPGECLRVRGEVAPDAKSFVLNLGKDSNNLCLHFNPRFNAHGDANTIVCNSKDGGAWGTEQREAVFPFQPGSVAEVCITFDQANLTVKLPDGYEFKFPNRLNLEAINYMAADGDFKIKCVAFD
Experimental: (§1) Various galectin molecules-immobilized columns were prepared by the method described by Nakamura S, Yagi F, Totani K, Ito γ and Hirabayashi J in FEBS J., 272, 2784-2799 (2005), using NHS Sepharose (manufactured by Amersham Bioscience) as the carrier for immobilizing galectin molecules and in accordance with the instructions attached thereto (put in parentheses is immobilization concentration, mg galectin/ml carrier).
(§2) Each galectin molecule was immobilized onto the carrier at the following concentration; galectin-1 (0.8 mg/ml), galectin-3 (0.5 mg/ml), galectin-8N (3.6 mg/ml), galectin-8C (4.0 mg/ml), galectin-9N (3.6 mg/ml), galectin-9C (3.0 mg/ml). The carrier on which each galectin was immobilized was charged into a stainless steel miniature column (2 mm in inner diameter, 10 mm in length; manufactured by Shimadzu Corp.).
(§3) A high performance liquid chromatography (HPLC) system was equipped with a galectin molecule-immobilized column, and the test was carried out by the method described in Nakamura S, Yagi F, Totani K, Ito γ and Hirabayashi J in FEBS J., 272, 2784-2799 (2005).
(§4) As the negative control sample, pyridyl-aminated N-acetylglucosamine (PA-GlcNAc, manufactured by Takara Bio, pyridyl-aminated glycosaminoglycan-oligosaccharide sample control) or pyridyl-aminated pullulan (prepared by carrying out pyridylamination of standard pullulan manufactured by Shodex, pyridyl-aminated glycosaminoglycan polysaccharide sample control) was used, and a V−V0 value was calculated from their eluate volume (V0 value) measured by fluorescence detection and the eluate volume (V value) of the sample, namely pyridyl-aminated glycosaminoglycan carbohydrate, and this was used as the index of interaction strength (Protein, Nucleic Acid and Enzyme, 48(8), 1206-1212 (2003)).
(§5) V−V0 values of pyridyl-aminated glycosaminoglycans (HA, CH, DN, NAH, CSA, CSB, CSC, CSD, CSE, KS-I and KS-II) were calculated based on PA-GlcNAc, and V−V0 values of pyridyl-aminated glycosaminoglycan-oligosaccharides (G2K1, G1L1, G4L4, L2L2, L2L4, L4L4, SL2L4 and CH3 to CH12) based on pyridyl-aminated pullulan, respectively.
(§6) In this connection, when the calculated value of the V−V0 value was less than 5 μl, it was regarded as less than the interaction detection limit in this example.

Galectin-3 [1] = molecular target: T2, Galectin-3 (Homo sapiens, UniProt P17931); experiment: FAC affinity test on galectin-immobilized column; type: binding; settings: pyridyl-aminated carbohydrate; galectin-3 immobilized 0.5 mg/ml; less than 5 μl = below interaction detection limit
T2 construct: made in house
T2 sequence (P17931 whole entry): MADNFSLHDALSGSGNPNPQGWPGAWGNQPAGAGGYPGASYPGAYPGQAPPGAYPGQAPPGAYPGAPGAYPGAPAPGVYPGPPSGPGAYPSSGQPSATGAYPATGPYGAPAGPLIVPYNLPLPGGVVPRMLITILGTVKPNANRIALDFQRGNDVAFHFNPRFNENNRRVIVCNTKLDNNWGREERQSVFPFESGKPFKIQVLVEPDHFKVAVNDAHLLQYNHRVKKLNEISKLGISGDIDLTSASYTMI
Experimental: as §1, §2, §3, §4, §5, §6

Galectin-9N [2] = molecular target: T3, Galectin-9N (Homo sapiens, UniProt O00182); experiment: FAC affinity test on galectin-immobilized column; type: binding; settings: pyridyl-aminated carbohydrate; galectin-9N immobilized 3.6 mg/ml; less than 5 μl = below interaction detection limit
T3 construct: N and C respectively represent N-terminal side carbohydrate-recognition domain and C-terminal side carbohydrate-recognition domain; made in house
T3 sequence (O00182 17-148 limits assumed): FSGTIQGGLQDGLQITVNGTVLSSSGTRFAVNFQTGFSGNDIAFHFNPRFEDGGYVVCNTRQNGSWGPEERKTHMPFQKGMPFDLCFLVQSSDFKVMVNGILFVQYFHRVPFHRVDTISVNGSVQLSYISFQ
Experimental: as §1, §2, §3, §4, §5, §6

Galectin-3 [3] = molecular target: T2, Galectin-3; experiment: FAC competitive inhibition test, binding of galectin-3 with LNnT; settings: 5.0 nM PA-LNnT; for V2 − V0: V1 − V0 30.6 μl
Experimental: (§7) A model test on a competitive inhibition was carried out by FAC, in which binding of a galectin molecule with a carbohydrate which binds to the galectin molecule is inhibited by a glycosaminoglycan molecule. The FAC was carried out in accordance with the above-described example (1). In addition, as a model carbohydrate which is known to be bound to the galectin molecule, a pyridylamination product of lacto-N-neotetraose (LNnT hereinafter, Gal β1-4 GlcNAc β1-3 Gal β1-4 Glc, purchased from Seikagaku Corporation) was used.
(§8) In the test, 5.0 nM in final concentration of PA-LNnT sample solution was mixed with various concentration of glycosaminoglycan molecule (not pyridyl-aminated, namely an inhibitory carbohydrate) to measure the eluate volume (V2 value) by FAC, and the inhibition ratio (%) was calculated as follows from the eluate volume (V1 value) before the mixing and the eluate volume (V0 value) of a negative control sample. Inhibition ratio (%)=100×(V1−V2)/(V1−V0) Formula 1
(§9) In this connection, the unlabeled (not pyridyl-aminated) CH4, CH6, CH10, HA4 and CSA4 were respectively prepared at Seikagaku Corporation in accordance with a conventionally known method.

Galectin-9N [4] = molecular target: T3, Galectin-9N; experiment: FAC competitive inhibition test, binding of galectin-9N with LNnT; settings: for Inhibition ratio / V2 − V0: 5.0 nM PA-LNnT; for V2 − V0: V1 − V0 20.3 μl
Experimental: as §7, §8, §9

Galectin-9C = molecular target: T4, Galectin-9C (Homo sapiens, UniProt O00182); experiment: FAC affinity test on galectin-immobilized column; type: binding; settings: pyridyl-aminated carbohydrate; galectin-9C immobilized 3.0 mg/ml; less than 5 μl = below interaction detection limit
T4 construct: N and C respectively represent N-terminal side carbohydrate-recognition domain and C-terminal side carbohydrate-recognition domain; made in house
T4 sequence (O00182 227-355 limits assumed): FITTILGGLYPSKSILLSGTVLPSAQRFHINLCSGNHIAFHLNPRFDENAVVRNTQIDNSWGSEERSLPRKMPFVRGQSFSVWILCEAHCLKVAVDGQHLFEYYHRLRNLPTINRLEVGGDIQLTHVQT
Experimental: as §1, §2, §3, §4, §5, §6

Galectin-8C = molecular target: T5, Galectin-8C (Homo sapiens, UniProt O00214); experiment: FAC affinity test on galectin-immobilized column; type: binding; settings: pyridyl-aminated carbohydrate; galectin-8C immobilized 4.0 mg/ml; less than 5 μl = below interaction detection limit
T5 construct: N and C respectively represent N-terminal side carbohydrate-recognition domain and C-terminal side carbohydrate-recognition domain; made in house
T5 sequence (O00214 187-317 limits assumed): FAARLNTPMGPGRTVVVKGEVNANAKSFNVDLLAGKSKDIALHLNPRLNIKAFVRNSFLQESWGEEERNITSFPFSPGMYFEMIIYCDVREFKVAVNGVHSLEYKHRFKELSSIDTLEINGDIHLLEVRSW
Experimental: as §1, §2, §3, §4, §5, §6

Galectin-8N = molecular target: T6, Galectin-8N (Homo sapiens, UniProt O00214); experiment: FAC affinity test on galectin-immobilized column; type: binding; settings: pyridyl-aminated carbohydrate; galectin-8N immobilized 3.6 mg/ml; less than 5 μl = below interaction detection limit
T6 construct: N and C respectively represent N-terminal side carbohydrate-recognition domain and C-terminal side carbohydrate-recognition domain; made in house
T6 sequence (O00214 19-152 limits assumed): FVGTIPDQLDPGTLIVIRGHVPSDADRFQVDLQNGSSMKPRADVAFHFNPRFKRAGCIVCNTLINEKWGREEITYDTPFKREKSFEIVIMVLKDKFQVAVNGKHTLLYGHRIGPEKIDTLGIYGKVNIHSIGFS
Experimental: as §1, §2, §3, §4, §5, §6

[5] = test system: tested galectin molecules (galectin-1, 3, 8N, 8C, 9N and 9C); experiment: FAC affinity test, statements on the whole panel of tested galectins; type: binding; settings: Table 3, whole galectin panel
Text: Using FAC, the present inventors have conducted a comprehensive analysis of the interactions between various galectin molecules (galectin-1, 3, 8N, 8C, 9N and 9C; N and C respectively represent N-terminal side carbohydrate-recognition domain and C-terminal side carbohydrate-recognition domain)-immobilized columns and various fluorescence-labeled glycosaminoglycan molecules. As a result, novel affinity was found by the combination of specific galectin molecules and glycosaminoglycan molecules to thereby accomplish the present invention.
as §3, §4, §6

[6] = final conc. 10 μM unlabeled inhibitor
[7] = final conc. 50 μM unlabeled inhibitor
[8] = final conc. 250 μM unlabeled inhibitor
[9] = final conc. 1 μM unlabeled inhibitor
[10] = final conc. 5 μM unlabeled inhibitor

Molecule | V − V0 Value (Galectin-1) [µL] | V − V0 Value (Galectin-3 [1]) [µL] | V − V0 Value (Galectin-9N [2]) [µL] | Inhibition ratio (Galectin-3 [3]; [6]) [%] | V2 − V0 (Galectin-3 [3]; [6]) [µL] | V − V0 Value (Galectin-9C) [µL] | V − V0 Value (Galectin-8C) [µL] | V − V0 Value (Galectin-8N) [µL] | binding to the tested galectin molecules (in words) [5] | other results
CC(=O)N[C@H]1[C@H](O[C@H]2[C@H](O)[C@@H](O)[C@H](O[C@H]3[C@@H](O)[C@@H](CO)OC(O)[C@@H]3NC(C)=O)O[C@@H]2C(=O)O)O[C@H](CO)[C@H](O)[C@@H]1O[C@@H]1O[C@H](C(=O)O)[C@@H](O)[C@H](O)[C@H]1O (stereo partly drawn) [CH4, GlcA β1-3 GalNAc β1-4 GlcA β1-3 GalNAc] | <5.0 | <5.0 | 45.3 ± 4.8 | 12.7 | 26.7 |  |  |  |  | Inhibition ratio (Galectin-3 [3]; [7]): 32.0%; V2 − V0 (Galectin-3 [3]; [7]): 20.8 µL; Inhibition ratio (Galectin-3 [3]; [8]): 48.0%; V2 − V0 (Galectin-3 [3]; [8]): 15.9 µL; inhibition of binding of galectin-9N with LNnT (in words) (Galectin-9N [4]; Table 5): inhibited by CH4 concentration-dependently; Inhibition ratio (Galectin-9N [4]; [9]): 16.7%; V2 − V0 (Galectin-9N [4]; [9]): 16.9 µL; Inhibition ratio (Galectin-9N [4]; [10]): 26.1%; V2 − V0 (Galectin-9N [4]; [10]): 15.0 µL; Inhibition ratio (Galectin-9N [4]; [6]): 32.5%; V2 − V0 (Galectin-9N [4]; [6]): 13.7 µL; Inhibition ratio (Galectin-9N [4]; [7]): 71.4%; V2 − V0 (Galectin-9N [4]; [7]): 5.8 µL
CC(=O)N[C@H]1[C@H](O[C@H]2[C@H](O)[C@@H](O)[C@H](O[C@H]3[C@@H](O)[C@@H](CO)O[C@@H](O[C@H]4[C@H](O)[C@@H](O)[C@H](O[C@H]5[C@@H](O)[C@@H](CO)OC(O)[C@@H]5NC(C)=O)O[C@@H]4C(=O)O)[C@@H]3NC(C)=O)O[C@@H]2C(=O)O)O[C@H](CO)[C@H](O)[C@@H]1O[C@@H]1O[C@H](C(=O)O)[C@@H](O)[C@H](O)[C@H]1O (stereo partly drawn) [CH6, GlcA β1-3 (GalNAc β1-4 GlcA β1-3)2 GalNAc] | <5.0 | 5.8 ± 1.4 | 33.3 ± 3.0 | 5.2 | 29.0 | <5.0 |  |  |  | 
CC(=O)N[C@H]1[C@H](O[C@H]2[C@H](O)[C@@H](O)[C@H](O[C@H]3[C@@H](O)[C@@H](CO)O[C@@H](O[C@H]4[C@H](O)[C@@H](O)[C@H](O[C@H]5[C@@H](O)[C@@H](CO)O[C@@H](O[C@H]6[C@H](O)[C@@H](O)[C@H](O[C@H]7[C@@H](O)[C@@H](CO)O[C@@H](O[C@H]8[C@H](O)[C@@H](O)[C@H](O[C@H]9[C@@H](O)[C@@H](CO)OC(O)[C@@H]9NC(C)=O)O[C@@H]8C(=O)O)[C@@H]7NC(C)=O)O[C@@H]6C(=O)O)[C@@H]5NC(C)=O)O[C@@H]4C(=O)O)[C@@H]3NC(C)=O)O[C@@H]2C(=O)O)O[C@H](CO)[C@H](O)[C@@H]1O[C@@H]1O[C@H](C(=O)O)[C@@H](O)[C@H](O)[C@H]1O (stereo partly drawn) [CH10, GlcA β1-3 (GalNAc β1-4 GlcA β1-3)4 GalNAc] | <5.0 | 11.8 ± 3.3 | 171.5 | 38.2 | 18.9 | <5.0 |  |  |  | 
N-acetylheparosan [NAH, reference compound] | <5.0 | <5.0 | <5.0 |  |  | <5.0 | <5.0 | <5.0 | did not bind | 
chondroitin sulfate A [CSA, reference compound] | <5.0 | <5.0 | <5.0 |  |  | <5.0 | <5.0 | <5.0 | did not bind | 
chondroitin sulfate C [CSC, reference compound] | <5.0 | <5.0 | <5.0 |  |  | <5.0 | <5.0 | <5.0 | did not bind | 
chondroitin sulfate D [CSD, reference compound] | <5.0 | <5.0 | <5.0 |  |  | <5.0 | <5.0 | <5.0 | did not bind | 
chondroitin sulfate E [CSE, reference compound] | <5.0 | <5.0 | <5.0 |  |  | <5.0 | <5.0 | <5.0 | did not bind | 
dermatan sulfate [CSB, reference compound] | <5.0 | <5.0 | <5.0 |  |  | <5.0 | <5.0 | <5.0 | did not bind | 
